Assay results reported in US10801068B2, “JAG1 expression predicts therapeutic response in NASH” (The Trustees of Columbia University in the City of New York, priority 2015, dated 2020).
Like-named read-outs stand apart in the source and are kept apart here.

Experiments:
[1] = system: adult patients with biopsy-confirmed NASH; settings: cited from earlier work
[2] = system: adult, non-diabetic patients with NASH; assay: PIVENS trial (Pioglitazone versus Vitamin E versus Placebo), ancillary analysis of responders, NAS, ALT, HOMA-IR; format: in vivo, human
Method: A pilot Ancillary Study to the Pioglitazone versus Vitamin E versus Placebo for the Treatment of nondiabetic Patients with Nonalcoholic Steatohepatitis (PIVENS) trial (Sanyal 2010), was conducted to ask whether hepatic Notch signaling tracks with disease pathology, and thus represent a novel biomarker of NAFLD/NASH.
PIVENS investigators randomized adult, non-diabetic patients with NASH to therapy with placebo, vitamin E (800 IU daily) or pioglitazone (30 mg daily), and had strict inclusion and exclusion criteria for trial entry, as well as a thorough clinical phenotyping of these patients (Sanyal 2011; Sanyal 2010). The PIVENS primary outcome was an improvement in NASH pathology, defined by improved hepatocellular ballooning without increase in fibrosis, and either a 2+ point decrease in NAS or to a score of ≤3 points.
Research-grade specimens were saved from subjects from the PIVENS trial for Ancillary Studies (Chalsani 2009). These samples were used to test the potential role of Notch signaling as either a biomarker or contributor to the NAFLD/NASH pathology.
(§1) A subset (Table 1, right), of PIVENS research subjects had paired baseline and 96 wk cDNA available for analysis.

[3] = system: HES1; assay: PIVENS paired baseline and 96 wk liver cDNA, HES1 expression; format: in vivo, human; settings: Vitamin E-treated responders, baseline vs 96 wk
Description: as §1
(§2) Sample size calculations are based from PIVENS data as described in Example 9A, and exclude pioglitazone-treated patients to be conservative. Using data derived from paired samples in Vitamin E-treated responders (mean difference of 1.11±0.51 fg/ng 18S for HES1 and 2.27±0.71 fg/ng 18S for HEYL), we calculated using unpaired t-testing with type I error=0.05 and type II error=[…], that 12 before-and-after biopsies in FLINT are required to detect a statistically significant difference in OCA-responders for both HES1 and HEYL.

[4] = system: HEYL; assay: PIVENS paired baseline and 96 wk liver cDNA, HEYL expression; format: in vivo, human; settings: Vitamin E-treated responders, baseline vs 96 wk
Description: as §1, §2

[5] = system: adult, non-diabetic patients with NASH; settings: final analysis; vitamin E 800 IU daily, pioglitazone 30 mg daily; cited from earlier work
[6] = Cross-sectional study, nonresponders (NR)
[7] = Cross-sectional study, responders (R)
[8] = Cross-sectional study, number of subjects with NASH resolution or primary PIVENS outcome
[9] = Longitudinal study, nonresponders (NR)
[10] = Longitudinal study, responders (R)
[11] = Longitudinal study, number of subjects

Molecule | Responders (%) ([2]; Cross-sectional study) | ALT [2, 6] | HOMA-IR [2, 6] | NAS [2, 6] | ALT [2, 7] | HOMA-IR [2, 7] | NAS [2, 7] | Responders [2, 8] | Responders (%) ([2]; Longitudinal study) | ALT [2, 9] | HOMA-IR [2, 9] | NAS [2, 9] | ALT [2, 10] | HOMA-IR [2, 10] | NAS [2, 10] | Responders [2, 11] | further results
CC[C@H]1[C@@H](O)[C@@H]2[C@H](CC[C@]3(C)[C@@H]([C@H](C)CCC(=O)O)CC[C@@H]23)[C@@]2(C)CC[C@@H](O)C[C@@H]12 [OCA, obeticholic acid] |  |  |  |  |  |  |  |  |  |  |  |  |  |  |  |  | HOMA-IR ([1]; change, p=0.01): +13 U; insulin ([1]; change, p=0.02): +29 pmol/L; HDL cholesterol ([1]; in vivo): significant lowering; insulin resistance ([1]; in vivo): increased insulin resistance; insulin resistance ([1]; in vivo, listed as obeticholic acid): clearly induced insulin resistance
CCc1ccc(CCOc2ccc(CC3SC(=O)NC3=O)cc2)nc1 (stereo not shown) [PIO, pioglitazone] | (78%) | 46 U/L | 5.5 | 4.8 | 34 ± U/L | 2.9 ± | 2.2 ± | 29 | (75%) | 56 U/L | 4.1 | 5.0 | 41 U/L | 3.3 | 3.0 | 3 | 
vitamin E [VitE] | (61%) | 55 U/L | 5.6 | 4.6 | 33 U/L | 5.2 | 2.7 ± | 25 | (60%) | 58 U/L | 5.1 | 3.9 | 45 U/L | 5.1 | 2.6 | 6 | mean difference of HES1 in paired samples [3]: 1.11±0.51 fg/ng 18S; mean difference of HEYL in paired samples [4]: 2.27±0.71 fg/ng 18S; PIVENS primary outcome (improvement in NASH pathology) [5]: met the primary outcome
